{"source": "patent US7902135B2", "about": "“Method of improving the ocular tolerance of foaming and/or detergent compositions for skin use” (Societe d'Exploitation de Produits pour les Industries …, priority 2006, dated 2011)", "system": "chorioallantoic membrane of the preincubated Leghorn hen's egg", "experiment": "HET-CAM (Hen's Egg Test ChorioAllantoic Membrane) test of ocular irritation potential", "details": "for Classification of the concentrate tested: HET-CAM, active material concentration of 1%, pH 7, class by scale of the index I", "description": "The experimental protocol of this test is adapted from the Luepke publication (The Hen's Egg Test: “An Alternative Toxicity Test”, Brit. J. Dermato., 1986, 115. Suppl. 31, 133-135, Luepke N. P. & Kemper F. H. The HET-CAM Test: “An Alternative to the Draize Test”, Food Chem. Toxicol., 1986, 24, No. 6/7, 495-496), from the INVITTOX No. 47 protocol (1992, INVITTOX data bank, 34 Stoney Street, Nottingham, NG1 1NB, UK) and from Annex IV to the order published in the Official Journal of the French Republic of 26 Dec. 1996 relating to the official methods for the analysis of beauty products (NOR: FCEC9600217A).\nThis tests consists in assessing the irritation potential of a substance by reading the modifications observed after application of a solution of this substance to the richly vascularized chorioallantoic membrane of the preincubated Leghorn hen's egg.\nThe products were tested at an active material concentration of 1%. The solutions are prepared by diluting in deionized water at most 24 hours in advance.\nThe pH of the test solutions is adjusted to 7 with triethanolamine or lactic acid, if necessary.\nOn reception, the fertilized eggs are preincubated in an incubator for 10 days at 37.8° C.±0.5° C. with a degree of humidity in the incubator of 50% to 60%.\nThe shell of the eggs on which the tests are carried out is cut out around the air pocket and the chorioallantoic membrane is uncovered by carefully removing the shell membrane using tweezers.\n0.3 cm^3 of the solution to be tested is deposited at the surface of the membrane. […]\nBy definition, if one of the phenomena has not appeared during these five minutes (300 seconds), it is recorded ti=301 seconds.\nEach solution is tested on 4 to 6 eggs according to the repeatability of the reactions observed. The Het-Cam index I, representative of the test, is calculated for each egg tested in the following way: I=5×(301−t1)/300+7×(301−t2)/300+9×(301−t3)/300\nThe mean of the individual indices is subsequently calculated, along with the statistical uncertainty i: i=t·S/√n for a risk of 5% […]"}
{"substance": "Sodium lauryl ether (2.2 EO) sulfate [compound 1]", "values": [{"measurement": "Classification of the concentrate tested", "result": "Irritating (9 ≦ . . . I < 12)"}, {"measurement": "Classification of the concentrate tested", "setting": "listed as comparative example 1", "result": "irritating"}, {"measurement": "Het-Cam index", "setting": "active material concentration of 1% in deionized water, pH adjusted to 7, 0.3 cm^3 on membrane, rinsed after 20 seconds, read over 5 minutes, mean of 4 to 6 eggs", "result": 10.7}]}
